Drawing on the supplement of paper PMC10307832, this text covers relative viability for six cell lines.

Experiment in all cases: relative viability (nuclei count vs DMSO), 5 days (fraction); higher = more cells survive
Compound in the assay “Trametinib + Crizotinib”: CC(=O)Nc1cccc(-n2c(=O)n(C3CC3)c(=O)c3c(Nc4ccc(I)cc4F)n(C)c(=O)c(C)c32)c1 [Trametinib] + C[C@@H](Oc1cc(-c2cnn(C3CCNCC3)c2)cnc1N)c1c(Cl)ccc(F)c1Cl [Crizotinib] (partner 1 µM)
The method in brief: (§1)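 For relative viability, nuclei counts in treated wells were divided by those in vehicle wells. Lung cancer cell lines had been pin-tool dosed in 1536-well plates the day after seeding and cultured for 5 days, then fixed and stained in one step (final 0.05% Triton X-100, 1% formaldehyde, 1 ug/ml Hoechst) and imaged at 4×. Doses were one drug alone or a fixed anchor-drug dose plus five library-drug doses (not always all listed) in √10 steps, and values are duplicate-plate medians.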

Compound in assay [1]: CN1C=C(C2=CC=CC=C21)/C=C\3/C4=C(C=CC=N4)NC3=O + CC1(C)CCC(c2ccc(Cl)cc2)=C(CN2CCN(c3ccc(C(=O)NS(=O)(=O)c4ccc(N[C@H](CCN5CCOCC5)CSc5ccccc5)c(S(=O)(=O)C(F)(F)F)c4)cc3)CC2)C1 [Navitoclax] (partner 0.5 µM)
The method in brief: as §1

Compound in assay [2]: CN1C=C(C2=CC=CC=C21)/C=C\3/C4=C(C=CC=N4)NC3=O + NC(=O)Nc1cc(-c2cccc(F)c2)sc1C(=O)N[C@H]1CCCNC1 [AZD7762] (partner 0.2 µM)
The method in brief:
as §1

Compound in assay [3]: CN1C=C(C2=CC=CC=C21)/C=C\3/C4=C(C=CC=N4)NC3=O + Nc1nc2[nH]cc(CCc3ccc(C(=O)N[C@@H](CCC(=O)O)C(=O)O)cc3)c2c(=O)[nH]1 [Pemetrexed] (partner 0.2 µM)
The method in brief: as §1

Take NCI-H2347: the relative viability in the assay with Trametinib + Crizotinib (first compound 0.0025 µM) stood at 0.698; in the assay with Trametinib + Crizotinib (first compound 0.007906 µM) it was 0.476; with Trametinib + Crizotinib (first compound 0.025 µM) it was 0.252; with Trametinib + Crizotinib (first compound 0.07906 µM), 0.464; with Trametinib + Crizotinib (first compound 0.25 µM) it was 0.433; in assay [1] (first compound 0.02 µM), 0.826. The relative viability came out at 0.859 in assay [1] (first compound 0.06325 µM); 0.743 in assay [1] (first compound 0.2 µM); 0.764 in assay [1] (first compound 0.6325 µM); 0.834 in assay [1] (first compound 2 µM); 0.778 in assay [2] (first compound 0.02 µM); 0.728 in assay [2] (first compound 0.06325 µM). Moreover, the relative viability in assay [2] (first compound 0.2 µM) is 0.56; in assay [2] (first compound 0.6325 µM) it was 0.79; in assay [2] (first compound 2 µM) it was 0.83; in assay [3] (first compound 0.02 µM), 0.445; in assay [3] (first compound 0.06325 µM), 0.454; in assay [3] (first compound 0.2 µM), 0.444. Besides, the relative viability in assay [3] (first compound 0.6325 µM) came out at 0.423; in assay [3] (first compound 2 µM) it was 0.426.

For the cell line NCI-H2405, the relative viability was found to be 0.864 with Trametinib + Crizotinib (first compound 0.0025 µM); 0.836 in the assay with Trametinib + Crizotinib (first compound 0.007906 µM); 0.685 with Trametinib + Crizotinib (first compound 0.025 µM); 0.561 with Trametinib + Crizotinib (first compound 0.07906 µM); 0.521 with Trametinib + Crizotinib (first compound 0.25 µM); 0.891 in assay [1] (first compound 0.02 µM). For the same cell line, the relative viability in assay [1] (first compound 0.06325 µM) is 0.803; in assay [1] (first compound 0.2 µM), 0.65; in assay [1] (first compound 0.6325 µM) it was 1.1; in assay [1] (first compound 2 µM), 0.732; in assay [2] (first compound 0.02 µM), 0.857; in assay [2] (first compound 0.06325 µM), 0.731. In addition, the relative viability was 0.552 in assay [2] (first compound 0.2 µM); 0.835 in assay [2] (first compound 0.6325 µM); 0.795 in assay [2] (first compound 2 µM); 1 in assay [3] (first compound 0.02 µM); 0.955 in assay [3] (first compound 0.06325 µM); 0.828 in assay [3] (first compound 0.2 µM). Moreover, the relative viability is 1.09 in assay [3] (first compound 0.6325 µM) and 1.01 in assay [3] (first compound 2 µM).

NCI-H3122: the relative viability in the assay with Trametinib + Crizotinib (first compound 0.0025 µM) came to 0.238; with Trametinib + Crizotinib (first compound 0.007906 µM), 0.228; in the assay with Trametinib + Crizotinib (first compound 0.025 µM), 0.221; with Trametinib + Crizotinib (first compound 0.07906 µM), 0.199; in the assay with Trametinib + Crizotinib (first compound 0.25 µM), 0.209; in assay [1] (first compound 0.02 µM), 0.907. In addition, the relative viability in assay [1] (first compound 0.06325 µM) was found to be 1.01; in assay [1] (first compound 0.2 µM) it was 0.989; in assay [1] (first compound 0.6325 µM) it was 1.11; in assay [1] (first compound 2 µM), 1.06; in assay [2] (first compound 0.02 µM), 0.85; in assay [2] (first compound 0.06325 µM) it was 0.953. Also, the relative viability in assay [2] (first compound 0.2 µM) is 0.845; in assay [2] (first compound 0.6325 µM), 1.04; in assay [2] (first compound 2 µM), 1.07; in assay [3] (first compound 0.02 µM), 0.185; in assay [3] (first compound 0.06325 µM), 0.196; in assay [3] (first compound 0.2 µM), 0.203. Moreover, the relative viability in assay [3] (first compound 0.6325 µM) came to 0.194; in assay [3] (first compound 2 µM), 0.267.

PC-3 [JPC-3]: the relative viability in the assay with Trametinib + Crizotinib (first compound 0.0025 µM) came out at 1.02; in the assay with Trametinib + Crizotinib (first compound 0.007906 µM), 0.968; with Trametinib + Crizotinib (first compound 0.025 µM), 0.919; with Trametinib + Crizotinib (first compound 0.07906 µM), 0.737; in the assay with Trametinib + Crizotinib (first compound 0.25 µM) it was 0.601; in assay [1] (first compound 0.02 µM) it was 0.782. The relative viability in assay [1] (first compound 0.06325 µM) was 0.743; in assay [1] (first compound 0.2 µM) it was 0.788; in assay [1] (first compound 0.6325 µM) it was 0.812; in assay [1] (first compound 2 µM) it was 0.683; in assay [2] (first compound 0.02 µM), 0.811; in assay [2] (first compound 0.06325 µM) it was 0.801. In addition, the relative viability in assay [2] (first compound 0.2 µM) was 0.752; in assay [2] (first compound 0.6325 µM), 0.819; in assay [2] (first compound 2 µM), 0.701; in assay [3] (first compound 0.02 µM), 0.846; in assay [3] (first compound 0.06325 µM), 1.05; in assay [3] (first compound 0.2 µM), 1.07. The relative viability in assay [3] (first compound 0.6325 µM) was 0.8; in assay [3] (first compound 2 µM) it was 0.79.

For the cell line PC-14, the relative viability with Trametinib + Crizotinib (first compound 0.0025 µM) came to 0.994; in the assay with Trametinib + Crizotinib (first compound 0.007906 µM), 0.909; in the assay with Trametinib + Crizotinib (first compound 0.025 µM) it was 0.815; in the assay with Trametinib + Crizotinib (first compound 0.07906 µM) it was 0.686; with Trametinib + Crizotinib (first compound 0.25 µM), 0.55; in assay [1] (first compound 0.02 µM), 1.05. Also, the relative viability in assay [1] (first compound 0.06325 µM) stood at 0.985; in assay [1] (first compound 0.2 µM) it was 1.14; in assay [1] (first compound 0.6325 µM), 0.971; in assay [1] (first compound 2 µM), 0.989; in assay [2] (first compound 0.02 µM) it was 0.254; in assay [2] (first compound 0.06325 µM), 0.307. Also, the relative viability was determined as 0.19 in assay [2] (first compound 0.2 µM); 0.306 in assay [2] (first compound 0.6325 µM); 0.264 in assay [2] (first compound 2 µM); 0.141 in assay [3] (first compound 0.02 µM); 0.137 in assay [3] (first compound 0.06325 µM); 0.145 in assay [3] (first compound 0.2 µM). The results for the relative viability in assay [3] (first compound 0.6325 µM) and in assay [3] (first compound 2 µM) were 0.143 and 0.118, respectively.

For the cell line RERF-LC-KJ, the relative viability in the assay with Trametinib + Crizotinib (first compound 0.0025 µM) stood at 0.794; in the assay with Trametinib + Crizotinib (first compound 0.007906 µM) it was 0.819; in the assay with Trametinib + Crizotinib (first compound 0.025 µM), 0.778; with Trametinib + Crizotinib (first compound 0.07906 µM), 0.664; with Trametinib + Crizotinib (first compound 0.25 µM) it was 0.763; in assay [1] (first compound 0.02 µM), 1.03. Besides, the relative viability was found to be 0.937 in assay [1] (first compound 0.06325 µM); 0.707 in assay [1] (first compound 0.2 µM); 0.691 in assay [1] (first compound 0.6325 µM); 0.51 in assay [1] (first compound 2 µM); 1.03 in assay [2] (first compound 0.02 µM); 0.96 in assay [2] (first compound 0.06325 µM). The relative viability in assay [2] (first compound 0.2 µM) was determined as 0.805; in assay [2] (first compound 0.6325 µM), 1.01; in assay [2] (first compound 2 µM), 0.928; in assay [3] (first compound 0.02 µM) it was 0.436; in assay [3] (first compound 0.06325 µM), 0.482; in assay [3] (first compound 0.2 µM), 0.493. In addition, the relative viability was 0.475 in assay [3] (first compound 0.6325 µM) and 0.471 in assay [3] (first compound 2 µM).
